Like-named read-outs stand apart in the source and are kept apart here.
What was measured:
Type in all cases: cell-based, human
[1] = test system: BM CD34+-derived cells (CD41+ MK); experiment: Ploidy analysis of CD34+-derived cells treated with contractility inhibitors (flow cytometry); conditions: for maximal polyploid cell number: scaled to 10,000 initial cell input
Description: Fresh purified bone marrow (BM)-derived humanCD34^+ cells were obtained from either the Penn Xenograft Core Facility or AllCells. Cells from at least 10 different donors were used in this study. Purity of the samples (>98%) was confirmed by flow cytometry with monoclonal antibody against human CD34 conjugated to phycoerythrin (PE). All experiments were performed in hematopoietic stem cell (HSC) expansion media (StemLine-II; Sigma) supplemented with 1× antibiotics, and the following human recombinant cytokines SCF (100 ng/mL) and Tpo (100 ng/mL). In some occasions, the media was also supplemented by G-CSF (100 ng/mL). All cytokines were purchased from R&D Systems. After cells were cultured for 4 days, they were treated with different doses of cellular contractility inhibitors, including (±)-blebbistatin (EMDBiosciences), reversine, ML-7, and Y-27632 (Sigma) for indicated durations of up to 3 days. Unfortunately, longer exposure to drug proves toxic even to polyploidy cells under the present culture conditions. Cells were then resuspended in PBS/2% FBS medium and subjected to ploidy analysis: cells were stained with CD41-FITC (BD Biosciences) at room temperature for 30 min, followed by Hoechst 33342 at 37° C. for 30 min. Then cells were stained with Annexin-V-PE (BD Biosciences) in the Annexin-V staining medium, followed by addition of 7-AAD. Stained cells were subjected to flow cytometric analysis (LSR-II; BD Biosciences): only viable cells (7-AAD^− and Hoechst 33342^+) were analyzed for ploidy. Cells with the DNA content of 8 N or higher were considered polyploid. To quantify absolute number of polyploid cells, viable cell number was counted before flow cytometry by Trypan blue exclusion, and this number was multiplied by percentages of each DNA compartment and subpopulations. Each multiplied number was then normalized by initial cell input number before drug treatment in culture.

[2] = test system: MKs; experiment: Proplatelet extension quantification
Description: Three-dimensional collagen gels embedded with cells were prepared as previously published (Rhee et al., 2007, Proc Natl Acad Sci USA, 104:5425-5430). BM-derived cells were added to the collagen solution prepared by neutralizing 2.0 mg/mL collagen-I (BD Biosciences) with HSC expansion media adjusted to appropriate the pH, so that cells could be embedded to the polymerized matrices (1×10^5 cells/mL). Next, 200 μL of this collagen mixture was placed in a well of 24-well plate and incubated at 37° C. 5% CO2 overnight before being formaldehyde-fixed and processed for microscopic analysis. Washing steps were done gently using pipette to minimize disturbance of gels. After completion of staining, matrices were released from the plate by gentle shaking and transferred to glass slides in mounting medium with either a spatula or gentle pipetting.
Cells on coverslips were fixed with 4% paraformaldehyde, followed by permeabilization with 0.5% Triton X-100 in PBS for 15 min and blocking with 1% BSA in PBS for 30 min. Samples were then stained with primary antibodies (1:100 for all antibodies used) overnight at 4° C. After washing, staining with appropriate Alexa-conjugated secondary antibodies (1:400) was performed for 45 min at room temperature. Cells were washed three times with PBS and mounted in ProLong Gold antifade medium (Invitrogen). Samples were then analyzed by fluorescence microscopy. For quantitative analysis, pictures from each experiment were taken under a defined set of exposure times on the same day with 40× objectives. Intensity of labeled NMM-II proteins for each cell was analyzed by ImageJ by subtracting a background, defining a threshold of cell boundary, followed by calculation of mean intensity. At least 10 images from each experiment were analyzed from three independent experiments. For proplatelet quantification, the process length from each cell was measured by manual tracing with ImageJ. Only processes above detection limit (≥1 μm in length from cell body) were considered for statistical analysis.

[3] = test system: CD34+-derived cells (CFU-GM, BFU-E); experiment: Colony forming assay
Description: 1000-3000 CD34^+-derived cells were seeded into methylcellulose containing media (MethoCult H4434, StemCell Technologies) supplemented with SCF, GM-CSF, IL-3, Epo. They were cultured for 14 days and colonies were scored at 10× magnification based on the published morphological criteria by StemCell Technoloigies. Colony forming content was normalized per 10,000 cells seeded.

[4] = test system: CD34+-derived cells; experiment: DNA microarray transcriptional profiling
Description: Total RNA was extracted from cells using trizol and isolated by RNeasy (Qiagen) according to manufacturer's protocol. Total RNA was amplified and converted to cDNA using WT-Ovation Pico kit (NuGen) and converted to ST-cDNA, fragmented and biotinfunctionalized using WT-Ovation Exon Mudule (NuGen). Hybridization cocktails were prepared at 45.4, 15.1 and 7.6 ng/μl ST-cDNA and mixed with Eukaryotic Hybridization Controls (GeneChip) at proportional concentrations. Each sample was interrogated by sequential hybridization, rinse and scan cycles on a single Human Gene 1.0 ST DNA microarray (Affymetrix), from low to high concentration, and followed by two rinse-scan cycles in which no sample was added. In each experiment the scanned intensities that were obtained from all samples, five scans per array, were mutually RMA-summarized to transcription clusters gene levels. Log-base-2 fold changes were calculated for each scan separately relative to the mean Bleb-treated and non-treated CD34^+ and CD34^− intensities, gene by gene, and the average and standard deviation values (SD) were calculated across scans. Heat maps of selected genes summarize data from technical and biological replica. Average gene-expression fold changes±STD of HSC, MPP and CPP samples are shown in white. Log-base-2 fold changes of Bleb-treated and non-treated CD34^+ and CD34^− were averaged from two biologically independent experiments and are shown±SD. The particular fold-changes are color coded on a logarithmic scale that is defined per each heat map. Color-coded gene symbols represent the absolute gene expression levels of the biologically-replicated averages of CD34^+ non-treated intensities. Gene expression levels are coded <=5 (green) to >=10 (red) on a log-base-2 scale. Samples and genes were clustered by Pearson Correlation (MeV). Dendograms represent the correlative proximity of log-base-2 gene expression fold changes. Mean gene expression levels were calculated by averaging across five array scans. Log-base-2 gene expression fold changes were calculated relative to the mean Bleb-treated and non-treated CD34^+ and CD34^− intensities, gene by gene.

Cc1ccc2c(c1)C(=O)C1(O)CCN(c3ccccc3)C1=N2 (racemic) [blebbistatin, (±)-blebbistatin]
drug dose found to be toxic [1]: ~100 µM | enrichment of mature polyploid MKs [1]: ~10 folds | doubling time of polyploid cell generation ([1]; 20 μM): 18.2 h | Ki ([1]; MK polyploidization / progenitor depletion in cells, read-out: inhibition constant Ki): ~7.6 µM | maximal polyploid cell number ([1]; SCF+Tpo CD41+): 278 | maximal polyploid cell number ([1]; SCF+Tpo CD41−): 1 | maximal polyploid cell number ([1]; SCF+Tpo+G-CSF CD41+): 141 | maximal polyploid cell number ([1]; SCF+Tpo+G-CSF CD41−): 352 | EC50 ([1]; dose-response, n≥3 donors, read-out: MK polyploid cell number EC50): 7.6 µM | IC50 ([1]; treatment for 3 d, with or without G-CSF, read-out: CD41+ MK and non-MK polyploid cell number IC50): 7.6 µM | increase in mean length of proplatelet extensions ([2]; cells grown on plastic): approximately threefold | effect on proplatelet extensions ([2]; cells in 3D collagen gels or on stiff, osteoid-like matrices): no effect | average proplatelet extension velocity ([2]; live imaging): ~1 μm/min | concentration under which BFU-E and CFU-GEMM numbers are not changed [3]: ~15 µM | IC50 ([3]; SCF and Tpo, n≥3 donors, read-out: BFU-E IC50): 18.6 µM | IC50 ([3]; SCF and Tpo, n≥3 donors, read-out: CFU-GM IC50): 10.5 µM | concentration of maximum BFU-E relative to CFU-GM ratio ([3]; absence of Epo): 12.5 µM | IC50 ([3]; absence of Epo, n=3 donors, read-out: BFU-E relative to CFU-GM IC50): 10 µM | increase of BFU-E to CFU-GM ratio ([3]; at 12.5 μM): 2 fold | NMM-IIA mRNA lower in drug-treated CD34+ cells [4]: ~30% | reduction of cyclin D1 and D3 (CCND1 and 3) expression [4]: 2 fold | SCF receptor (KIT) expression vs untreated CD34+ cells ([4]; treated CD34+ cells): 1.8 fold | upregulation of CD133 (PROM1) and CD34 above pooled average ([4]; treated CD34+ cells in culture): more than 2 fold

From patent US9920295B2, “Bioreactor for isolation of rare cells and methods of use” (The Trustees of the University of Pennsylvania, priority 2012, dated 2018)
